For orientation: GI50 means the concentration giving 50% growth inhibition. The term TGI denotes the concentration at which net growth stops. The low end stands for greater sensitivity of the cells, the high end for lower sensitivity of the cells.

For six molecules, GI50 and TGI results are on record in PubChem BioAssay (NCI).

What all share (test): DTP human tumour cell line panel, 48 h
In experiment [1] the test system is HOP-62 NSCLC.
Experiment [2] has as its system MALME-3M melanoma.
Experiment [3] relates to MOLT-4 leukemia.
In experiment [4] the test system is SF-539 CNS.
For experiment [5], the system named is NCI/ADR-RES ovarian.
Experiment [6] relates to UO-31 renal.
Experiment [7] has as its system CCRF-CEM leukemia.
The subject of experiment [8] is SK-MEL-2 melanoma.
For experiment [9], the system named is A549 NSCLC.
For experiment [10], the system named is MDA-MB-231 breast.

Each structure is given as a SMILES string.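 Grown in 96-well plates, cells were treated for 48 hours with each compound at five concentrations. Insufficient inhibition: endpoint recorded as highest concentration tested. GI50: concentration for 50% inhibition of growth. TGI: concentration producing complete growth inhibition.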

As to `COC(=O)c1ccc(CN2C(=O)C(Cl)=C(Nc3cccc(Cl)c3C)C2=O)cc1`, the GI50 in experiment [1] was 14.2 µM; in experiment [2] it was 2030 nM; in experiment [3], 5.14 µM; in [4], 23.1 µM; in experiment [5] it was 34.8 µM; in experiment [6], 15100 nM. For the same molecule, the GI50 in experiment [7] was 3320 nM; in [8] it was 3.48 µM; in experiment [9], 37.2 µM; in [10] it was 6150 nM. Further, the TGI in experiment [1] was > 100 µM; in experiment [2], 9.82 µM; in experiment [3], > 100 µM; in experiment [4], 58.7 µM; in experiment [5] it was > 100 µM; in [6] it was > 100 µM. Also, the TGI in experiment [7] is > 100 µM; in experiment [8], 21.9 µM; in experiment [9], > 100 µM; in experiment [10], 47.3 µM.
Regarding `CNC(=O)c1c(NC(=O)c2ccc(C(C)(C)C)cc2)sc2c1CCC(=O)C2`, the GI50 was 0.835 µM in [1]; 345 nM in experiment [2]; 0.314 µM in experiment [3]; 0.244 µM in [4]; 0.313 µM in experiment [5]; 214 nM in experiment [6]. Also, the GI50 in experiment [7] is 88.6 nM; in [8] it was 0.508 µM; in experiment [9] it was 0.3 µM; in experiment [10] it was 300 nM. Also, the TGI in [1] is 3.32 µM; in experiment [2], 1.59 µM; in experiment [3], 2.05 µM; in [4], 1.22 µM; in experiment [5] it was 1.29 µM; in [6], 0.819 µM. Moreover, the TGI is > 20.1 µM in experiment [7], 1.96 µM in [8], 1.6 µM in [9] and 1.13 µM in experiment [10].
Take `CCC(C)Nc1ccc(N)cc1` (stereo not given): the GI50 in experiment [1] was 4.14 µM; in experiment [2], 2650 nM; in experiment [3], 4.29 µM; in [4], 5.16 µM; in experiment [5], 10.6 µM; in experiment [6], 3300 nM. The GI50 was 3330 nM in [7], 3.21 µM in experiment [8], 4.7 µM in [9] and 2910 nM in experiment [10]. Also, the TGI stood at 14.9 µM in experiment [1]; 8.08 µM in [2]; 12.4 µM in [3]; 17.1 µM in experiment [4]; 28 µM in [5]; 14 µM in [6]. The total growth inhibition concentration (TGI) in [7] stood at 17.9 µM; in experiment [8], 8.61 µM; in [9], 48.5 µM; in experiment [10] it was 12.8 µM.
Turning to `CC1=C(SCCC(=O)OC(C[Se]C2=C(C)C(=O)c3ccccc3C2=O)C(=O)NCCCCCC(=O)OCc2ccccc2)C(=O)c2ccccc2C1=O` (stereo not given), the GI50 in [1] is 3.82 µM; in [2] it was 2070 nM; in [3], 4.08 µM; in experiment [4], 4.49 µM; in [5] it was 4.59 µM; in [6] it was 2510 nM. Further, the GI50 in experiment [7] is 2820 nM; in experiment [8], 5.5 µM; in [9] it was 3.95 µM; in [10], 6810 nM. Moreover, the TGI in experiment [1] is 14.4 µM; in [2], 6.96 µM; in experiment [3], > 100 µM; in experiment [4] it was 15.3 µM; in [5] it was 18.3 µM; in experiment [6], 15.3 µM. In addition, the TGI in [7] is > 100 µM; in [8], 18.9 µM; in [9], 11.4 µM; in [10] it was 22 µM.
For `Nc1ccc(C(=O)N/C(=C\c2cccc([N+](=O)[O-])c2)c2nc3[nH]c(=S)[nH]c(=O)c3[nH]2)cc1`, the TGI in experiment [1] is 45.6 µM; in experiment [2] it was > 100 µM; in [3], > 56.2 µM; in experiment [4] it was 67 µM; in [5], > 100 µM; in experiment [6] it was > 100 µM. The TGI in [7] was > 100 µM; in experiment [8], > 100 µM; in experiment [9] it was > 100 µM; in experiment [10], > 94.5 µM.
Take `COc1ncc(Nc2ncc([C@@H](C)N3CCN(S(C)(=O)=O)CC3)cc2-c2nc(C)nc(N)n2)cc1F`: the GI50 in experiment [1] is 0.192 µM; in [2], 199 nM; in experiment [3], 0.0402 µM; in [4] it was 0.0876 µM; in [5], 1.61 µM; in [6], < 11.4 nM. The GI50 is 145 nM in [7], 2.05 µM in [8], 0.186 µM in experiment [9] and 1590 nM in experiment [10]. Moreover, the TGI in [1] was 75.1 µM; in [2], 10.5 µM; in [3], 4.13 µM; in [4], 1.45 µM; in experiment [5], > 100 µM; in experiment [6] it was 1.89 µM. The TGI was > 54.1 µM in [7], > 69.6 µM in [8], > 40.7 µM in experiment [9] and 13.9 µM in experiment [10].
